The values below are quoted from earlier work in patent US20190224170A1, “THERAPIES AND METHODS TO TREAT INFLAMMATORY GASTROINTESTINAL DISEASES AND DISORDERS” (The Regents of the University of California, priority 2018, published 2019).

The data set has as its system multiple sclerosis. The settings on record: supplementation with high doses of biotin.

In the case of `O=C(O)CCCC[C@@H]1SC[C@@H]2NC(=O)N[C@@H]21` [biotin], the clinical response result is reported as “distinctive positive clinical response”.
